ChEMBL document CHEMBL1128861 (Bioorg Med Chem Lett, 1995)

Key:
[1] = biological target: Serotonin 3 (5-HT3) receptor (Homo sapiens) (UniProt P46098+A5X5Y0+O95264+Q70Z44+Q8WXA8); assay: Binding affinity against 5-hydroxytryptamine 3 receptor of guinea pig ileum; type: tissue-based; details: Cavia porcellus, target entry is the homologue from another species
[2] = biological target: Adrenergic receptor alpha-1 (Rattus norvegicus) (UniProt P15823+P23944+P43140); assay: Affinity for Alpha-1 adrenergic receptor of rat aorta; type: tissue-based
[3] = biological target: Histamine H1 receptor (Cavia porcellus) (UniProt P31389); assay: Affinity for H1 histamine receptor of guinea pig ileum; type: tissue-based
[4] = biological target: Muscarinic acetylcholine receptor M3 (Cavia porcellus) (UniProt Q8VH26); assay: Affinity for ileal muscarinic M3 receptor of guinea pig ileum; type: tissue-based
[5] = biological target: 5-hydroxytryptamine receptor 2A (Rattus norvegicus) (UniProt P14842); assay: Affinity for 5-HT2A receptor of rat tail artery; type: tissue-based
[6] = biological target: T1, Adrenergic receptor alpha-1 (Rattus norvegicus, UniProt P15823+P23944+P43140); assay: Antagonism against Alpha-1 adrenergic receptor of rat aorta; type: functional, tissue-based
T1 sequence (P15823 whole entry): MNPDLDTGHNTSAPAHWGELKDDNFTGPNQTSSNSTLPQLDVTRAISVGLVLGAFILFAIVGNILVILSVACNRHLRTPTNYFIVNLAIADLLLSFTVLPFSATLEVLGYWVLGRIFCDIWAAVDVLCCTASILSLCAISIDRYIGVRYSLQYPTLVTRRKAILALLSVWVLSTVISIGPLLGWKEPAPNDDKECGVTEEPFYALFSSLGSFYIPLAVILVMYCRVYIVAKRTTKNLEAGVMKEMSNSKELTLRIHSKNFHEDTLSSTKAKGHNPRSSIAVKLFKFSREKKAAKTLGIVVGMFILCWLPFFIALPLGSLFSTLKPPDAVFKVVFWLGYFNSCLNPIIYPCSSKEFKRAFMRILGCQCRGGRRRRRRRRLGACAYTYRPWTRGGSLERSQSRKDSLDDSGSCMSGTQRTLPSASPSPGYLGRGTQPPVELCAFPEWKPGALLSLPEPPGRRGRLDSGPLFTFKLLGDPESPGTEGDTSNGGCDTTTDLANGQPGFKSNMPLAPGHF
T1 sequence (P23944 whole entry): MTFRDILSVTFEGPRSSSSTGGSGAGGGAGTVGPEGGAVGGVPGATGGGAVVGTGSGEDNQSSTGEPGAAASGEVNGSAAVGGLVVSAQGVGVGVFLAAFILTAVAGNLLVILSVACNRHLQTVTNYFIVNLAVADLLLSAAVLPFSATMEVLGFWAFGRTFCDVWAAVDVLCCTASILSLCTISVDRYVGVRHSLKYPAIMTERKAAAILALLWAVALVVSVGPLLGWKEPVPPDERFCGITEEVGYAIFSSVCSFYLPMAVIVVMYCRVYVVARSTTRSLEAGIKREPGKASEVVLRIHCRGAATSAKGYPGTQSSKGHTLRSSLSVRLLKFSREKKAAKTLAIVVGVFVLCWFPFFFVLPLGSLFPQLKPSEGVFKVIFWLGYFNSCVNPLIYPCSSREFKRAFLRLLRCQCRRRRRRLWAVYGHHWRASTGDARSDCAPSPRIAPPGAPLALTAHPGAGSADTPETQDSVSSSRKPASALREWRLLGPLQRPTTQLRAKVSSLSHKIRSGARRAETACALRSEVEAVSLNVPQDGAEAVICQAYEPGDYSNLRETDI
T1 sequence (P43140 whole entry): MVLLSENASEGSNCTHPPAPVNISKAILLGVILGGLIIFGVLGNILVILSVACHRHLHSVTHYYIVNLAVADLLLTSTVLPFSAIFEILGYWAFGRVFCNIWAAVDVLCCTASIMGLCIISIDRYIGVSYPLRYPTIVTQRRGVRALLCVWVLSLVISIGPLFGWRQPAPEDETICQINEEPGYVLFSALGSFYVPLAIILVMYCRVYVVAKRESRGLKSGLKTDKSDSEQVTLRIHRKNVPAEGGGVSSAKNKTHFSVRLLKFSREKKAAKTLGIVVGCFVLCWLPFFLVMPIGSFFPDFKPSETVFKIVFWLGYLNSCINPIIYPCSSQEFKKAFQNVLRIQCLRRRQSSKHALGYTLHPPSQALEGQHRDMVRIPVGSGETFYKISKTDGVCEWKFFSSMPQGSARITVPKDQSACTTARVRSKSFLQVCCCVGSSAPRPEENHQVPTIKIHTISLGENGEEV

[7] = biological target: T2, 5-hydroxytryptamine receptor 2A (Rattus norvegicus, UniProt P14842); assay: Antagonism of 5-HT2A receptor of rat tail artery; type: functional, tissue-based; details: read-out: pA2 (converted)
[8] = biological target: Muscarinic acetylcholine receptor M3 (Cavia porcellus) (UniProt Q8VH26); assay: Binding affinity against ileal muscarinic M3 receptor of guinea pig ileum; type: tissue-based
[9] = biological target: 5-hydroxytryptamine receptor 2A (Rattus norvegicus) (UniProt P14842); assay: Binding affinity against 5-HT2A receptor of rat tail artery; type: tissue-based
Histamine H1 receptor = Histamine H1 receptor (Cavia porcellus, UniProt P31389); assay: Antagonism against H1 histamine receptor of guinea pig ileum; type: functional, tissue-based; details: read-out: pA2 (converted)
[10] = biological target: T2, 5-hydroxytryptamine receptor 2A; assay: Binding affinity towards 5-HT2A receptor of rat tail artery; type: tissue-based

Histamine H1 receptor (Cavia porcellus), sequence (P31389 whole entry): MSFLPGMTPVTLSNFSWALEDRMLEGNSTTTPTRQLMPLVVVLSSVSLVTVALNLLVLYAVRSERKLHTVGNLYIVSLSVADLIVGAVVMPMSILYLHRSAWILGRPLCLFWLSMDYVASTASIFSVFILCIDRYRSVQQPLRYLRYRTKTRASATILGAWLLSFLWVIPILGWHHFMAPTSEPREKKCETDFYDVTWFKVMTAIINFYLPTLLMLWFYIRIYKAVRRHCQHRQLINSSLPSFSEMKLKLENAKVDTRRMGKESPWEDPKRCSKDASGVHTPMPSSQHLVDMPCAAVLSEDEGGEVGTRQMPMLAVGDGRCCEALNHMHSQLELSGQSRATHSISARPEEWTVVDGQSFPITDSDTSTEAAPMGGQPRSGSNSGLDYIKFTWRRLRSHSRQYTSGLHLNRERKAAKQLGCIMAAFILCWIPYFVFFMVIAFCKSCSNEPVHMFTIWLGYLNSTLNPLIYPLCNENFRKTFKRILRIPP
5-hydroxytryptamine receptor 2A (Rattus norvegicus), sequence (P14842 whole entry): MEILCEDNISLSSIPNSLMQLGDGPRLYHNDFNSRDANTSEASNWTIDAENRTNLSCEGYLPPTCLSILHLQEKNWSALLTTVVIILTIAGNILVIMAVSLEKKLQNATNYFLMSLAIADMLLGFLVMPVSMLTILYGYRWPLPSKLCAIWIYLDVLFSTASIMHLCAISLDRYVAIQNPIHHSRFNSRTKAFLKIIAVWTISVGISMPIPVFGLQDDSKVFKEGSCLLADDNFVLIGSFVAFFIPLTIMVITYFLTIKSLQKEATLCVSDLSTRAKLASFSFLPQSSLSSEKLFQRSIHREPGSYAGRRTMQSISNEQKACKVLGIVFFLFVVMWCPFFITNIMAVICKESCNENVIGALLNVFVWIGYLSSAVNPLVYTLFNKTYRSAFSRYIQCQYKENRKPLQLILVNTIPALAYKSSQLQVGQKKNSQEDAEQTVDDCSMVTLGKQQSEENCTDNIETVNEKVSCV
T2 sequence (P14842 whole entry): as above
Muscarinic acetylcholine receptor M3 (Cavia porcellus), sequence (Q8VH26 1-587): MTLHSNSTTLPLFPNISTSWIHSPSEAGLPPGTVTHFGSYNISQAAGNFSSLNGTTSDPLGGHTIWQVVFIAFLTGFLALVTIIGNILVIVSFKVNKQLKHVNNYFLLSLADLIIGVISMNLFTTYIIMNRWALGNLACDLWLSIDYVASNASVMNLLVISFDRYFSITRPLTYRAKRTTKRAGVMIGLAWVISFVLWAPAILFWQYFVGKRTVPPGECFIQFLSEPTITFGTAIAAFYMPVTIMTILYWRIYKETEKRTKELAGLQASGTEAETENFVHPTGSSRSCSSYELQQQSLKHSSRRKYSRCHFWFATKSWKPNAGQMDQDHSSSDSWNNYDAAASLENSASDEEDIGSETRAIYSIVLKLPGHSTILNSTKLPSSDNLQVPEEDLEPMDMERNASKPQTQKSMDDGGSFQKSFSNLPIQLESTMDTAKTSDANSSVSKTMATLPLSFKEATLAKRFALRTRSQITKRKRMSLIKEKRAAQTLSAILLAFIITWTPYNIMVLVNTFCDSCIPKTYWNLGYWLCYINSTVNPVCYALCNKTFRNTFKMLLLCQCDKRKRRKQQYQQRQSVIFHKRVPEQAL
Histamine H1 receptor, sequence (P31389 whole entry): as the sequence (P31389 whole entry) above

Row | pKB [1] | pKB [2] | pKB [3] | pKB [4] | pKB [5] | Kb [7] | SMILES | also measured
1 | < 5.2 | 7.58 | 6.4 | 4.97 | 8.43 |  | Cn1c2c(c3ccccc31)C(=O)C(CN1CCC(c3ccccc3)CC1)CC2 (configuration not stated) | 
2 | < 5.3 | 6.11 | 5.69 | 4.98 | 5.98 |  | Cn1c2c(c3ccccc31)C(=O)C(CN1CCCCC1)CC2 (configuration not stated) | 
3 | < 5.2 |  | 6.19 | 4.72 | 7.8 |  | Cn1c2c(c3ccccc31)C(=O)C(CN1CCN(c3ccccc3F)CC1)CC2 (configuration not stated) | pA2 [6]: 8.75
4 |  |  |  |  |  | 0.437 nM | Cn1c2c(c3ccccc31)C(=O)C(CN1CCC(C(=O)c3ccc(F)cc3)CC1)CC2 (stereo in doubt; (-)-13) [listing 1 of 2 here] | 
5 |  |  |  |  | 6.59 |  | Cn1c2c(c3ccccc31)C(=O)C(CNCc1ncc[nH]1)CC2 (configuration not stated) | 
6 |  | 7.28 | 6.82 |  |  |  | Cn1c2c(c3ccccc31)C(=O)C(CN1CCC(C(=O)c3ccc(F)cc3)CC1)CC2 (single isomer, unassigned; (+)) [listing 1 of 2 here] | 
7 |  |  |  |  | 6.73 |  | Cn1c2c(c3ccccc31)C(=O)C(CNc1ncc[nH]1)CC2 (configuration not stated) | 
8 | < 5.7 | 6.45 | 5.9 | 4.68 | 5.5 |  | CN(CCn1c(=O)[nH]c2ccccc2c1=O)CC1CCc2c(c3ccccc3n2C)C1=O (configuration not stated) | 
9 |  | 5.29 | 4.37 |  |  |  | Cc1nccn1CC1CCc2c(c3ccccc3n2C)C1=O (configuration not stated) | pKB [8]: 4.72; pKB [9]: 4.66
10 | < 5.5 | 7.8 | 6.74 | 5.55 |  | 2.51 nM | Cn1c2c(c3ccccc31)C(=O)C(CN1CCN(c3ccc(F)cc3)CC1)CC2 (configuration not stated) | 
11 |  |  |  |  | 6.75 |  | Cn1c2c(c3ccccc31)C(=O)C(CNCCc1c[nH]cn1)CC2 (configuration not stated) | 
12 | < 5.5 | 7.36 | 6.53 | 5.01 |  | 4.57 nM | Cn1c2c(c3ccccc31)C(=O)C(CN1CCC(C(=O)c3ccccc3)CC1)CC2 (configuration not stated) | 
13 |  | 8.08 | 6.74 |  |  |  | Cn1c2c(c3ccccc31)C(=O)C(CN1CCC(C(=O)c3ccc(F)cc3)CC1)CC2 (stereo in doubt; (-)-13) [listing 2 of 2 here] | 
14 |  |  |  |  |  | 64.6 nM | Cn1c2c(c3ccccc31)C(=O)C(CN1CCC(C(=O)c3ccc(F)cc3)CC1)CC2 (single isomer, unassigned; (+)) [listing 2 of 2 here] | 
15 |  | 5.81 | 7.41 | 5.7 | 6.3 |  | Cn1c2c(c3ccccc31)C(=O)C(CN1CCC(=C(c3ccc(F)cc3)c3ccc(F)cc3)CC1)CC2 (configuration not stated) | pD2 [1]: 6.08
16 |  |  |  | 4.18 |  |  | O=C(c1ccc(F)cc1)C1CCN(CCn2c(=O)[nH]c3ccccc3c2=O)CC1 [KETANSERIN] | pA2 [6]: 8.09; Kb (Histamine H1 receptor): 1.41 nM
17 |  |  |  |  |  | 0.617 nM | Cn1c2c(c3ccccc31)C(=O)C(CN1CCC(C(=O)c3ccc(F)cc3)CC1)CC2 (racemic) [listing 1 of 2 here] | 
18 |  |  |  |  |  | 525 nM | O=C(c1ccc(F)cc1)C1CCNCC1 | Ki [10]: 398 nM
19 | < 5.7 | 7.96 | 6.92 | 5.19 |  |  | Cn1c2c(c3ccccc31)C(=O)C(CN1CCC(C(=O)c3ccc(F)cc3)CC1)CC2 (racemic) [listing 2 of 2 here] | 

Row | SMILES | pKB [1] | pKB [2] | pKB [3] | pKB [4] | pKB [5] | Kb [7] | also measured
20 | Cn1c2c(c3ccccc31)C(=O)C(CN1CC=C(c3c[nH]c4ccccc34)CC1)CC2 (configuration not stated) |  | 7.58 | 6.62 |  |  | 6.31 nM | 
21 | Cn1c2c(c3ccccc31)C(=O)C(CN1CC=C(c3c[nH]c4ccc(F)cc34)CC1)CC2 (configuration not stated) |  | 6.49 | 6.6 |  | 7.22 |  | 
22 | COc1ccc2[nH]cc(C3=CCN(CC4CCc5c(c6ccccc6n5C)C4=O)CC3)c2c1 (configuration not stated) |  | 6.59 | 6.31 |  | 6.09 |  | 
